These results are taken from patent US10118954B2, “Apelin analogues” (University of Ulster, priority 2014, dated 2018).

Series [1] is described as follows: Degradation of apelin peptides by plasma from fasted normal NIH Swiss mice (rp-HPLC, MALDI-TOF MS). Format: in vitro ADME. The following applies: for half-life at 263 µg/mL / remaining at 4 h, 263 µg/mL: NIH Swiss, mouse, plasma, pH 7.4. An outline of the steps: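 Apelin peptides were incubated with plasma from fasted normal NIH Swiss mice for 4 h, and the reaction was stopped with TFA. Products were separated by C-8 rp-HPLC with detection at 214 nm. Peak fractions were identified by MALDI-TOF MS, giving fragment molecular weights and retention times.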

For series [2], the system named is NIH Swiss mice fed a high-fat diet for 150 days. The series can be described thus: Acute and delayed i.p. glucose tolerance test, blood glucose and plasma insulin. It counts as in vivo. How it is done:
Plasma glucose and plasma insulin concentrations were measured prior to and after i.p. administration of glucose alone (18 mmol/kg body weight), or in combination with apelin analogues (25 nmol/kg body weight) in 18 h fasted mice fed a high-fat diet for 150 days. Values represent mean±SEM for eight mice (n=8). *P<0.05, **P<0.01 and ***P<0.001 compared to glucose alone. FIG. 6 illustrates effect of i.p. administration of glucose alone (18 mmol/kg body weight), ([…])apelin-13 and ([…])apelin-13 alone or in combination (each 25 nmol/kg body weight) on (A) blood glucose and (B) plasma insulin in 18 h fasted mice fed a high-fat diet for 150 days. Values represent mean±SEM for eight mice (n=8). *p<0.05 and **p<0.01 compared to glucose alone, ^+P<0.05 compared to ([…])apelin-13, ^∇P<0.05 and ^∇∇P<0.01 compared to ([…])apelin-13. FIG. 10 illustrates tests conducted 2 h after administration of apelin related analogues (25 nmol/kg body wt) in 18 h fasted mice fed a high-fat diet for 150 days. (A) Blood glucose and (B) plasma insulin was measured before and after i.p. administration of glucose (18 mmol/kg body wt) alone or in combination with apelin analogues. Values represent mean±SEM for eight mice (n=8). *P<0.05 and **P<0.01 compared to glucose alone. FIG. 11 illustrates tests conducted 8 h after administration of apelin related analogues (25 nmol/kg body wt) in 18 h fasted mice fed a high-fat diet for 150 days. (A) Blood glucose and (B) plasma insulin was measured before and after i.p. administration of glucose (18 mmol/kg body wt) alone or in combination with apelin analogues. Values represent mean±SEM for eight mice (n=8). *P<0.05 and **P<0.01 compared to glucose alone. FIG. 12 illustrates acute effects of fatty acid modified apelin analogues on glucose-lowering and insulin release in high fat fed Swiss NIH mice with dietary-induced diabetes. (A) Blood glucose and (B) plasma insulin concentrations were measured prior to and after i.p. administration of glucose alone (18 mmol/kg body weight), or in combination with apelin analogues (25 nmol/kg body weight) in 18 h fasted mice fed a high-fat diet for 150 days. Values represent mean±SEM for eight mice (n=8). *P<0.05, compared to glucose alone. FIG. 13 illustrates tests conducted 16 h after administration of fatty acid apelin analogues (25 nmol/kg body wt) in mice fed a high-fat diet for 150 days. (A) Blood glucose and (B) plasma insulin was measured before and after i.p. administration of glucose (18 mmol/kg body wt) alone or in combination with apelin analogues. Values represent mean±SEM for eight mice (n=8). *P<0.05, **P<0.01 and ***P<0.001 compared to glucose alone. NIH Swiss mice (Harlan UK Ltd., Blackthorne, UK) were derived from a nucleus colony obtained from the National Institute of Health, Bethesda, Md., USA. One group of mice were maintained on a standard rodent diet (10% fat, 30% protein, 60% carbohydrate; percent of total energy 12.99 kJ/g, Trouw Nutrition, Cheshire, UK) and used as a model of normal glycaemia. Other NIH Swiss mice were maintained on a high fat diet (45% fat, 20% protein, 35% carbohydrate; percent of total energy 26.15 […], UK) from 8 weeks of age for 150 days to produce a model of diet induced obesity-diabetes. […] All mice were housed in an air-conditioned room maintained at 22±2° C. with a 12 h light: 12 h dark cycle (08:00-20:00 h), were singly caged, and selected for experimental groups according to body weight and non-fasted blood glucose. Drinking water and diet were freely available. All animal studies were performed in accordance with the UK Animals (Scientific Procedures) Act 1986. For acute in vivo studies, blood samples were collected from the cut tip of the tail vain of fasted, conscious mice into fluoride/heparin coated glucose microcentrifuge tubes (Sarstedt, Germany) immediately prior to (t=0) and at 15, 30, 60 and 105 min following i.p. injection of glucose ([…]).

Series [3] relates to high fat fed NIH Swiss mice. Put plainly: 28 day long-term study, twice daily i.p. administration. It counts as in vivo. As to conditions: for Percentage fat mass compared to high-fat fed controls: DEXA; for Glucose tolerance and plasma insulin excursion following an i.p. and oral glucose load: after the 28 day treatment period. The text has this: NIH Swiss mice (Harlan UK Ltd., Blackthorne, UK) were derived from a nucleus colony obtained from the National Institute of Health, Bethesda, Md., USA. One group of mice were maintained on a standard rodent diet (10% fat, 30% protein, 60% carbohydrate; percent of total energy 12.99 kJ/g, Trouw Nutrition, Cheshire, UK) and used as a model of normal glycaemia. Other NIH Swiss mice were maintained on a high fat diet (45% fat, 20% protein, 35% carbohydrate; percent of total energy 26.15 […], UK) from 8 weeks of age for 150 days to produce a model of diet induced obesity-diabetes. […] Drinking water and diet were freely available. All animal studies were performed in accordance with the UK Animals (Scientific Procedures) Act 1986. […] Following the run-in period, normal control (n=8) and high-fat fed mice (n=8) received twice daily (09:00 and 17:00 h) i.p. administration of saline vehicle (0.9% NaCl (w/v)) for 28 days. […] Blood samples for glucose and plasma insulin measurement were collected at intervals throughout the study from the cut tail vein of conscious mice. […] Glucose was measured using an Ascensia Contour meter and blood was collected and processed for plasma insulin analysis by radioimmunoassay. Body weight and fat mass was also assessed using the PIXImus DEXA scanner whilst energy expenditure, intake, food intake and feeding bouts were assessed using the CLAMS metabolic chamber. HbA1c was analysed post 28 days using Bayer A1C Now^+ Multi Test meter. Lipid profile test was obtained by using the iLab analyser. Cholesterol, triglyceride and HDL-cholesterol levels were measured, in plasma (3 μl), using the iLab analyser. LDL-cholesterol levels were obtained using the Friedewald equation=total cholesterol-HDL-(triglycerides/3).

The next series concerns male NIH Swiss mice. The series can be described thus: Acute effects of apelin analogues on voluntary food intake. It counts as in vivo. As to conditions: 25 nmol/kg i.p., 150 min, FIG. 39. The protocol: Saline and peptide analogues were administered by intraperitoneal injection and cumulative food intake was monitored at 30, 60, 90 and 120 min after feeding.
Mice were habituated to a daily feeding regime of 3 h/day by progressively reducing the daily feeding period over 3 weeks. This was performed to ensure mice consumed entire daily food intake within 3 h, thereby allowing “peptide” effects to be measured over the known eating period of mice. On days 1 to 7, mice were supplied with food from 10:00 h to 20:00 h, on days 8 to 14, food was presented from 10:00 h to 19:00 h and on days 15 to 21, food was restricted to the 3 h interval from 10:00 h to 13:00 h. This regime was continued throughout the experimental period.
Mice that were habituated to a 3 h daily feeding regime were administered with an i.p. injection of saline (0.9% w/v NaCl) or apelin peptide (1-100 nmol/kg bw) at 10:00 h (n=8). Immediately following injection, food was initially weighed and then presented to the mice and subsequently weighed at 30 min intervals up to 180 min.

Setting [4] is: acute, peptide 25 nmol/kg i.p. with glucose 18 mmol/kg, Table 4.
The mark [5] stands for this setting: following a 2 h delay, 25 nmol/kg.
Where [6] appears, read: following a 8 h delay, 25 nmol/kg.
Where [7] appears, read: twice daily 25 nmol/kg bw, 28 days.
Where [8] appears, read: acute, alone and in combination, each 25 nmol/kg i.p. with glucose, Table 5.

Regarding `CSCC[C@H](NC(=O)[C@@H]1CCCN1C(=O)CNC(=O)[C@H](CCCCN)NC(=O)[C@H](Cc1c[nH]cn1)NC(=O)[C@H](CO)NC(=O)[C@H](CC(C)C)NC(=O)[C@H](CCCNC(=N)N)NC(=O)[C@@H]1CCCN1C(=O)[C@H](CCCNC(=N)N)NC(=O)[C@@H]1CCC(=O)N1)C(=O)N1CCC[C@H]1C(=O)N[C@@H](Cc1ccccc1)C(N)=O` [(pGlu)apelin-13-amide], in series [1], the “Degradation fragment, Peak 1” value is “amide (1-5)”; the “Degradation fragment, Peak 2” value was “amide (1-12)”; the “Rank order of stability” value is 7; the half-life at 263 µg/mL is 10.4 h. Moreover, the fraction remaining at 4 h, 263 µg/mL in series [1] was 85 ± 1.3%. Besides, in series [2] (acute, Table 4), the “Rank order on basis of anti-hyperglycaemic efficacy” value (“Rank order on basis” below) amounted to 1. In addition, in series [2] (setting [4]), the “Blood glucose as percent of glucose-alone control (lower = stronger glucose lowering)” value was 57% (**) and the “Insulin secretion, where glucose alone = 100%” value was 159% (***). The “Rank order on basis” value in series [2] (following a 2 h delay) is recorded as 1. In addition, in series [2] (setting [5]), the “Blood glucose as percent of glucose-alone control (lower = stronger glucose lowering)” value is listed as 67% (**) and the “Insulin secretion, where glucose alone = 100%” value was 146% (***). Moreover, the “Rank order on basis” value in series [2] (following a 8 h delay) worked out at 1. Also, in series [2] (setting [6]), the “Blood glucose as percent of glucose-alone control (lower = stronger glucose lowering)” value is on record as 79% (*) and the “Insulin secretion, where glucose alone = 100%” value was 120% (*). Further, the “Time after injection up to which efficacy is retained” value in series [2] (glucose lowering, high-fat fed mice) is given as “up to 8 h”. In series [3] (after 28 days), the “Glycated haemoglobin (HbA1c) in comparison to high-fat fed saline treated controls” value is “reduction” and the “Percentage fat mass compared to high-fat fed controls” value is reported as “significantly reduced”. The Insulin sensitivity entry in series [3] (after 28 days, insulin 25 U/kg bw) was “significantly improved”. For the same compound, in series [3], the “Glucose tolerance and plasma insulin excursion following an i.p. and oral glucose load” value was “significantly improved”. In series [3] (setting [7]), the “Day of study at which bodyweight was significantly decreased” value was ~20 days; the “Day of study at which circulating blood glucose began to be significantly reduced and plasma insulin increased” value came out at 10 days; the Food intake entry is listed as “significantly reduced food intake”; the “Non-fasting plasma insulin levels” value is “significant increase”.
For `CCCCCCCCCCCCCCCC(=O)N[C@@H](CCC(=O)NCCCC[C@H](NC(=O)[C@H](Cc1c[nH]cn1)NC(=O)[C@H](CO)NC(=O)[C@H](CC(C)C)NC(=O)[C@H](CCCNC(=N)N)NC(=O)[C@@H]1CCCN1C(=O)[C@H](CCCNC(=N)N)NC(=O)[C@@H](N)CCC(N)=O)C(=O)NCC(=O)N1CCC[C@H]1C(=O)N[C@@H](CCSC)C(=O)N1CCC[C@H]1C(=O)N[C@H](C(=O)O)C(C)C)C(=O)O` [Lys^8GluPAL(Val^13)apelin-13], the “Increase of food intake, maximal, compared to saline treated control” value in the series with male NIH Swiss mice came out at 9.2%.
Turning to `CSCC[C@H](NC(=O)[C@@H]1CCCN1C(=O)CNC(=O)[C@H](CCCCN)NC(=O)[C@H](Cc1c[nH]cn1)NC(=O)[C@H](CO)NC(=O)[C@H](CC(C)C)NC(=O)[C@H](CCCNC(=N)N)NC(=O)[C@@H]1CCCN1C(=O)[C@H](CCCNC(=N)N)NC(=O)[C@@H](N)CCC(N)=O)C(=O)N1CCC[C@H]1C(=O)N[C@@H](Cc1ccccc1)C(N)=O` [Apelin-13-amide], in series [1], the “Degradation fragment, Peak 1” value is on record as “Apelin-13-amide (1-12)”; the “Rank order of stability” value is given as 5; the half-life at 263 µg/mL is 11.4 h; the amount remaining at 4 h, 263 µg/mL was found to be 80.4 ± 1.9%. The “Rank order on basis” value in series [2] (acute, Table 4) turned out to be 2. Moreover, in series [2] (setting [8]), the “Glucose lowering, where glucose alone = 100%” value is given as 65% (**) and the “Insulin secretion, where glucose alone = 100%” value was 153% (***). Besides, in series [2] (setting [4]), the “Blood glucose as percent of glucose-alone control (lower = stronger glucose lowering)” value is 65% (**) and the “Insulin secretion, where glucose alone = 100%” value was 153% (***). Moreover, in series [2] (following a 2 h delay), the “Rank order on basis” value came out at 2. In series [2] (setting [5]), the “Blood glucose as percent of glucose-alone control (lower = stronger glucose lowering)” value is reported as 73% (**) and the “Insulin secretion, where glucose alone = 100%” value is 142% (**). Further, in series [2] (following a 8 h delay), the “Rank order on basis” value was found to be 3. Further, in series [2] (setting [6]), the “Blood glucose as percent of glucose-alone control (lower = stronger glucose lowering)” value worked out at 88% ^ and the “Insulin secretion, where glucose alone = 100%” value came to 106%. The “Percentage fat mass compared to high-fat fed controls” value in series [3] (after 28 days) is listed as “failed to reach significance”. Besides, the “Glucose tolerance and plasma insulin excursion following an i.p. and oral glucose load” value in series [3] is “significantly improved”. In addition, the “Day of study at which bodyweight was significantly decreased” value in series [3] (setting [7]) is ~20 days.

A word on the half-life: it is the time in which the quantity being followed falls by half. As usually defined, the fraction remaining is what is left of the initial amount, in per cent.
